From patent publication US20070154543A1, “Solid preparation for oral use” (KYORIN PHARMACEUTICAL CO., LTD, priority 2003, published 2007) come the findings set out here.

Molecules are shown by their SMILES.

This data set can be described thus: Pharmacokinetics of KRP-101 in plasma after oral or intravenous administration. The class given is in vivo. The following applies: male Beagle dog, intravenous, 0.5 mg/kg. Here is the method: To a male Beagle dog, one tablet of the film-coated tablets obtained in Example 1 was administered orally or 0.5 mg/kg of KRP-101 were administered intravenously, and the concentration of KRP-101in plasma was measured until 24 hours after administration.

The term half-life denotes how long it takes for the measured level to halve. With `CC[C@@H](Cc1ccc(OC)c(C(=O)NCc2ccc(Oc3ccc(F)cc3)cc2)c1)C(=O)O` [KRP-101, (S)-2-[3-[N-[4-(4-fluorophenoxy)benzyl]carbamoyl]-4-methoxybenzyl]butanoic acid], the “AUC (Total area under concentration-time curve)” value is 1354 ng·h/mL. The half-life (plasma, read-out: T½ (Elimination half-life) (converted)) was 2.2 h.
